According to ChEMBL document CHEMBL4819019, “Design, synthesis, antibacterial activity and toxicity of novel quaternary ammonium compounds based on pyridoxine and fatty acids” (Eur J Med Chem, 2021):
In brackets after ≈: the same amount, converted by molar mass. Activity calls are given as the source filed them. The calls are words filed in the database; no cut-off is given here.

How the values were obtained:
[1] = Cytotoxicity against human skin fibroblasts assessed as cell viability measured after 72 hrs by MTT assay; assay type: cell-based, Fibroblast
[2] = Lipophilicity, logP of the compound; assay type: physicochemical; conditions: octanol/water
Bacillus subtilis = assay: Antibacterial activity against Bacillus subtilis 168 measured after 24 hrs by broth microdilution method; assay type: functional
[3] = Acute toxicity in po dosed C57BL/6CBA mouse measured upto 7 days; assay type: organism-based; conditions: in vivo, time <=7 day
Staphylococcus aureus [4] = assay: Antibacterial activity against Staphylococcus aureus ATCC 29213 measured after 24 hrs by broth microdilution method; assay type: functional
[5] = Cytotoxicity against human HEK293 cells assessed as cell viability measured after 72 hrs by MTT assay; assay type: cell-based
[6] = Cytotoxicity against human mesenchymal stem cells assessed as cell viability measured after 72 hrs by MTT assay; assay type: cell-based
Escherichia coli [7] = assay: Antibacterial activity against Escherichia coli MG 1655 measured after 24 hrs by broth microdilution method; assay type: functional
Pseudomonas aeruginosa [8] = assay: Antibacterial activity against Pseudomonas aeruginosa ATCC 27853 measured after 24 hrs by broth microdilution method; assay type: functional
Micrococcus luteus [9] = assay: Antibacterial activity against Micrococcus luteus clinical isolate measured after 24 hrs by broth microdilution method; assay type: functional
Staphylococcus aureus [10] = assay: Antibacterial activity against clinical isolate methicillin-resistant Staphylococcus aureus 1065 measured after 24 hrs by broth microdilution method; assay type: functional
[11] = Genotoxicity in Salmonella typhimurium TA1537 assessed as number of revertant by Ames spot test relative to solvent control; assay type: toxicity; conditions: salmonella enterica subsp. enterica serovar typhimurium
Staphylococcus aureus [12] = assay: Antibacterial activity against clinical isolate methicillin-resistant Staphylococcus aureus 713 measured after 24 hrs by broth microdilution method; assay type: functional
Staphylococcus aureus [13] = assay: Antibiofilm activity against biofilm-embedded Staphylococcus aureus assessed as reduction in log CFU at 1 to 32 times of MBC measured after 24 hrs by drop plate assay; assay type: functional, organism-based
Micrococcus luteus [14] = assay: Antibiofilm activity against biofilm-embedded Micrococcus luteus assessed as reduction in log CFU at 1 to 32 times of MBC measured after 24 hrs by drop plate assay; assay type: functional, organism-based
Cell membrane [15] = assay: Induction of cell membrane damage in Escherichia coli assessed as decrease in flourescence measured for 35 mins with 5 min interval by DioC2(3) based flourescence method
Pseudomonas aeruginosa [16] = assay: Antibacterial activity against clinical isolate Pseudomonas aeruginosa 1945 measured after 24 hrs by broth microdilution method; assay type: functional
Staphylococcus aureus [17] = assay: Antibacterial activity against clinical isolate methicillin-resistant Staphylococcus aureus 1053 measured after 24 hrs by broth microdilution method; assay type: functional
Klebsiella sp. = assay: Antibacterial activity against clinical isolate Klebsiella sp. 11 measured after 24 hrs by broth microdilution method; assay type: functional
Staphylococcus aureus [18] = assay: Antibacterial activity against clinical isolate methicillin-resistant Staphylococcus aureus 983 measured after 24 hrs by broth microdilution method; assay type: functional
[19] = Acute toxicity in topically treated C57BL/6CBA mouse assessed as death measured at 2500 mg/kg treated as single topically measured after 14 days; assay type: organism-based; conditions: in vivo, topical_or_ocular, 336 h, time 14 day
[20] = Genotoxicity in Salmonella typhimurium TA1535 assessed as number of revertant by Ames spot test relative to solvent control; assay type: toxicity; conditions: salmonella enterica subsp. enterica serovar typhimurium
Escherichia coli [21] = assay: Antibiofilm activity against biofilm-embedded Escherichia coli assessed as reduction in log CFU at 1 to 32 times of MBC measured after 24 hrs by drop plate assay; assay type: functional, organism-based
Escherichia coli [22] = assay: Antibacterial activity against Escherichia coli assessed as fold increase in MIC after 4 passages by serial dilution method; assay type: functional, organism-based; conditions: time 24.0 hrs
Klebsiella pneumoniae = assay: Antibacterial activity against clinical isolate Klebsiella pneumoniae 1813 measured after 24 hrs by broth microdilution method; assay type: functional
Moraxella = assay: Antibacterial activity against clinical isolate Moraxella 765 measured after 24 hrs by broth microdilution method; assay type: functional
[23] = Antibiofilm activity against biofilm-embedded Staphylococcus aureus/Pseudomonas aeruginosa assessed as reduction in viable cells upto 512 mg/L measured after 24 hrs by drop plate based dual species biofilm assay; assay type: functional, cell-based; conditions: dose mg/L <=512, time 24.0 hrs
Staphylococcus aureus [24] = assay: Antibacterial activity against clinical isolate methicillin-resistant Staphylococcus aureus 1131 measured after 24 hrs by broth microdilution method; assay type: functional
Pseudomonas aeruginosa [25] = assay: Antibiofilm activity against biofilm-embedded Pseudomonas aeruginosa assessed as reduction in log CFU at 1 to 32 times of MBC measured after 24 hrs by drop plate assay; assay type: functional, organism-based
[26] = Genotoxicity in Salmonella typhimurium TA1535/pSK1002 assessed as DNA-damage activity by measuring beta-galactosidase activity at 750 ug/ml measured by SOS-chromotest relative to solvent control; assay type: toxicity; conditions: salmonella enterica subsp. enterica serovar typhimurium; dose 750 µg/ml
Pseudomonas sp. = assay: Antibacterial activity against clinical isolate Pseudomonas sp. 5 measured after 24 hrs by broth microdilution method; assay type: functional
[27] = Genotoxicity in Salmonella typhimurium TA1535/pSK1002 assessed as DNA-damage activity by measuring beta-galactosidase activity at 75 ug/ml measured by SOS-chromotest relative to solvent control; assay type: toxicity; conditions: salmonella enterica subsp. enterica serovar typhimurium; dose 75 µg/ml
Serratia marcescens = assay: Antibacterial activity against clinical isolate Serratia marcescens 1966 measured after 24 hrs by broth microdilution method; assay type: functional
[28] = Acute toxicity in topically treated C57BL/6CBA mouse measured upto 14 days; conditions: in vivo, topical or ocular, time <=14 day
[29] = Acute toxicity in C57BL/6CBA mouse assessed as necropsy measured at 2500 mg/kg treated as single topically measured after 14 days; assay type: organism-based; conditions: in vivo, topical_or_ocular, 336 h, time 14 day
[30] = Genotoxicity in Salmonella typhimurium TA98 assessed as number of revertant by Ames spot test relative to solvent control; assay type: toxicity; conditions: salmonella enterica subsp. enterica serovar typhimurium
Enterococcus faecalis [31] = assay: Antibacterial activity against clinical isolate Enterococcus faecalis 23 measured after 24 hrs by broth microdilution method; assay type: functional
[32] = Genotoxicity in Salmonella typhimurium TA1535/pSK1002 assessed as DNA-damage activity by measuring beta-galactosidase activity at 7.5 ug/ml measured by SOS-chromotest relative to solvent control; assay type: toxicity; conditions: salmonella enterica subsp. enterica serovar typhimurium; dose 7.5 µg/ml
Staphylococcus aureus [33] = assay: Antibacterial activity against clinical isolate Staphylococcus aureus 25 measured after 24 hrs by broth microdilution method; assay type: functional
Enterococcus faecalis [34] = assay: Antibacterial activity against clinical isolate Enterococcus faecalis 3063 measured after 24 hrs by broth microdilution method; assay type: functional
Cell membrane [35] = assay: Induction of cell membrane damage in Staphylococcus aureus assessed as decrease in flourescence measured for 35 mins with 5 min interval by DioC2(3) based flourescence method
Escherichia coli [36] = assay: Antibacterial activity against clinical isolate Escherichia coli 718 measured after 24 hrs by broth microdilution method; assay type: functional
Proteus sp. = assay: Antibacterial activity against clinical isolate Proteus sp. 17 measured after 24 hrs by broth microdilution method; assay type: functional; conditions: Proteus sp. (in: enterobacteria)
[37] = Genotoxicity in Salmonella typhimurium TA100 assessed as number of revertant by Ames spot test relative to solvent control; assay type: toxicity; conditions: salmonella enterica subsp. enterica serovar typhimurium
[38] = tested on: Staphylococcus intermedius; assay: Antibacterial activity against clinical isolate methicillin-resistant Staphylococcus intermedius 1061 measured after 24 hrs by broth microdilution method; assay type: functional
Staphylococcus aureus [39] = assay: Antibacterial activity against Staphylococcus aureus assessed as fold increase in MIC after 8 passages by serial dilution method; assay type: functional, organism-based; conditions: time 24.0 hrs
Acinetobacter sp. = assay: Antibacterial activity against clinical isolate Acinetobacter sp. 3 measured after 24 hrs by broth microdilution method; assay type: functional
[40] = Acute toxicity in C57BL/6CBA mouse assessed pale gastric mucosa at 2000 mg/kg, po after 7 days; assay type: organism-based; conditions: in vivo, 168 h, time 7 day
[41] = Genotoxicity in Salmonella typhimurium TA1535/pSK1002 assessed as DNA-damage activity by measuring beta-galactosidase activity at 150 ug/ml measured by SOS-chromotest relative to solvent control; assay type: toxicity; conditions: salmonella enterica subsp. enterica serovar typhimurium; dose 150 µg/ml
[42] = Acute toxicity in C57BL/6CBA mouse assessed as pale kidneys at 2000 mg/kg, po after 7 days; assay type: organism-based; conditions: in vivo, 168 h, time 7 day
[43] = Genotoxicity in Salmonella typhimurium TA1535/pSK1002 assessed as DNA-damage activity by measuring beta-galactosidase activity at 15 ug/ml measured by SOS-chromotest relative to solvent control; assay type: toxicity; conditions: salmonella enterica subsp. enterica serovar typhimurium; dose 15 µg/ml
[44] = tested on: Staphylococcus ureilyticus; assay: Antibacterial activity against clinical isolate Staphylococcus ureilyticus 1972 measured after 24 hrs by broth microdilution method; assay type: functional
[45] = Antibiofilm activity against biofilm-embedded Staphylococcus aureus/Escherichia coli assessed as reduction in viable cells upto 512 mg/L measured after 24 hrs by drop plate based dual species biofilm assay; assay type: functional, cell-based; conditions: dose mg/L <=512, time 24.0 hrs
[46] = tested on: Staphylococcus intermedius; assay: Antibacterial activity against clinical isolate methicillin-resistant Staphylococcus intermedius 1143 measured after 24 hrs by broth microdilution method; assay type: functional

Compound: [H]/N=C(\N/C(=N/[H])NCCCCCCNC(=N)NC(=N)Nc1ccc(Cl)cc1)Nc1ccc(Cl)cc1 [CHLORHEXIDINE]
- CC50 at 72 h [1]: 6.32 µg/mL (≈ 12.5 µM)
- logP [2]: 4.51
- MIC (Bacillus subtilis): 1 µg/mL (≈ 1.98 µM)
- LD50 at 168 h [3]: 1260 mg/kg
- MIC (Staphylococcus aureus [4]): 2 µg/mL (≈ 3.96 µM)
- CC50 at 72 h [5]: 7.28 µg/mL (≈ 14.4 µM)
- CC50 at 72 h [6]: 5.12 µg/mL (≈ 10.1 µM)
- MIC (Escherichia coli [7]): 1 µg/mL (≈ 1.98 µM)
- MIC (Pseudomonas aeruginosa [8]): 4 µg/mL (≈ 7.91 µM)
- MIC (Micrococcus luteus [9]): 0.5 µg/mL (≈ 0.989 µM)

Compound: CCCCCCCCCCCCCC(=O)NCC[N+](C)(C)Cc1nc(C)c2c(c1CO)COC(C)(C)O2.[Cl-]
- CC50 at 72 h [1]: 3.21 µg/mL
- MIC (Staphylococcus aureus [10]): 2 µg/mL
- Ratio [11]: 0.01
- MIC (Staphylococcus aureus [12]): 4 µg/mL
- Activity (Staphylococcus aureus [13]): Active
- Activity (Micrococcus luteus [14]): Active
- Activity (Cell membrane [15]): Dose-Dependent Effect
- logP [2]: 0.73
- MIC (Pseudomonas aeruginosa [16]): 32 µg/mL
- MIC (Staphylococcus aureus [17]): 4 µg/mL
- MIC (Klebsiella sp.): 32 µg/mL
- MIC (Staphylococcus aureus [18]): 32 µg/mL
- Activity [19]: Non-Toxic
- Ratio [20]: 1.1
- MIC (Bacillus subtilis): 1 µg/mL
- Activity (Escherichia coli [21]): Active
- LD50 at 168 h [3]: > 2000 mg/kg
- MIC (Escherichia coli [22]): Active
- MIC (Klebsiella pneumoniae): 2 µg/mL
- MIC (Moraxella): 64 µg/mL
- Activity [23]: inactive
- MIC (Staphylococcus aureus [4]): 1 µg/mL
- MIC (Staphylococcus aureus [24]): 4 µg/mL
- Activity (Pseudomonas aeruginosa [25]): Active
- Ratio [26]: 0.4
- MIC (Pseudomonas sp.): 32 µg/mL
- Ratio [27]: 0.7
- MIC (Serratia marcescens): > 64 µg/mL
- LD50 at 336 h [28]: > 2500 mg/kg
- Activity [29]: Non-Toxic
- Ratio [30]: 1.9
- MIC (Enterococcus faecalis [31]): 1 µg/mL
- Ratio [32]: 1.6
- MIC (Staphylococcus aureus [33]): 2 µg/mL
- CC50 at 72 h [5]: 1.32 µg/mL
- CC50 at 72 h [6]: 1.74 µg/mL
- MIC (Escherichia coli [7]): 8 µg/mL
- MIC (Enterococcus faecalis [34]): 1 µg/mL
- Activity (Cell membrane [35]): Dose-Dependent Effect
- MIC (Escherichia coli [36]): 16 µg/mL
- MIC (Proteus sp.): > 64 µg/mL
- Ratio [37]: 1.7
- MIC [38]: 4 µg/mL
- MIC (Staphylococcus aureus [39]): Active
- MIC (Pseudomonas aeruginosa [8]): > 64 µg/mL
- MIC (Acinetobacter sp.): 32 µg/mL
- Activity [40]: Toxic
- MIC (Micrococcus luteus [9]): 2 µg/mL
- Ratio [41]: 0.7
- Activity [42]: Toxic
- Ratio [43]: 1.8
- MIC [44]: > 64 µg/mL
- Activity [45]: inactive
- MIC [46]: 4 µg/mL

Compound: CCCCCCCCCCCCCC(=O)OCC[N+](C)(C)Cc1cnc(C)c2c1COC(C)(C)O2.[Cl-]
- CC50 at 72 h [1]: 1.94 µg/mL
- MIC (Staphylococcus aureus [10]): 8 µg/mL
- Ratio [11]: 0.02
- MIC (Staphylococcus aureus [12]): 8 µg/mL
- logP [2]: 2.14
- MIC (Pseudomonas aeruginosa [16]): 64 µg/mL
- MIC (Staphylococcus aureus [17]): 8 µg/mL
- MIC (Klebsiella sp.): 64 µg/mL
- MIC (Staphylococcus aureus [18]): 64 µg/mL
- Ratio [20]: 0.9
- MIC (Bacillus subtilis): 1 µg/mL
- MIC (Klebsiella pneumoniae): 64 µg/mL
- MIC (Moraxella): 64 µg/mL
- MIC (Staphylococcus aureus [4]): 0.5 µg/mL
- MIC (Staphylococcus aureus [24]): 16 µg/mL
- Ratio [26]: 0.4
- MIC (Pseudomonas sp.): 64 µg/mL
- Ratio [27]: 1.2
- MIC (Serratia marcescens): 64 µg/mL
- Ratio [30]: 4.6
- MIC (Enterococcus faecalis [31]): 4 µg/mL
- Ratio [32]: 1.6
- MIC (Staphylococcus aureus [33]): 8 µg/mL
- CC50 at 72 h [5]: 0.17 µg/mL
- CC50 at 72 h [6]: 1.08 µg/mL
- MIC (Escherichia coli [7]): 8 µg/mL
- MIC (Enterococcus faecalis [34]): 4 µg/mL
- MIC (Escherichia coli [36]): 32 µg/mL
- MIC (Proteus sp.): > 64 µg/mL
- Ratio [37]: 1.4
- MIC [38]: 8 µg/mL
- MIC (Pseudomonas aeruginosa [8]): 1 µg/mL
- MIC (Acinetobacter sp.): 64 µg/mL
- MIC (Micrococcus luteus [9]): 0.5 µg/mL
- Ratio [41]: 0.6
- Ratio [43]: 1.6
- MIC [44]: > 64 µg/mL
- MIC [46]: 8 µg/mL
